Reference: US20170050966A1, “INHIBITING THE TRANSIENT RECEPTOR POTENTIAL A1 ION CHANNEL” (HYDRA BIOSCIENCES, INC., priority 2014, published 2017)
Converted amounts (≈) assume the structure as drawn. Like-named read-outs stand apart in the source and are kept apart here.

Key:
CYP3A4 = CYP3A4 (Homo sapiens, UniProt P08684); assay: CYP450 inhibition at 10 μM; type: biochemical
CYP2C19 = CYP2C19 (Homo sapiens, UniProt P33261); assay: in vitro; settings: probe Mephenytoin
[1] = Solubility of micronized Compound 2 in McIlvain's citrate-phosphate buffer; type: physicochemical; settings: aqueous buffer, thermodynamic from solid, citrate-phosphate buffer pH 2.2 to 8.64, 30 hours, read-out: Solubility of micronized formulation
Method: Solubility of a micronized formulation of Compound 2 was further evaluated using McIlvain's citrate-phosphate buffer recipes (0.2M Na2HPO4 and 0.1M citric acid) from pH 2.2 to 8.64. Samples were agitated for 30 hours and sampled, centrifuged, and analyzed by UPLC.

beagle dogs = assay: Hepatotoxicity safety profile, serum biomarkers; type: in vivo; settings: for ALP d-5 / ALT d-5 / AST d-5 / GGT d-5: day -5 before dosing; for ALP d5 / ALT d5 / AST d5 / GGT d5: day 5
Method: Compound 2 in vehicle (0.5% methylcellulose [400 cps] in deionized water) was administered orally once daily for five consecutive days by gavage once to 3 groups of non-naïve male and female beagle dogs. Each group received one dose level. […] […] The dose volume was 10 ml/kg for all groups. Hepatoxicity was measured via the serum biomarkers of alanine aminotransferease [ALT], aspartate aminotransferase [AST], alkaline phosphastase [ALP] and gamma-glutamyl transferase [GGT] which represent hepatotoxicity or bile duct injury.

mTRPA1 = target: T1, mTRPA1 (Mus musculus, UniProt Q8BLA8); assay: TRPA1 IC50, whole-cell patch clamp; type: cell-based; settings: mTRPA1, 10 μM AITC; read-out: IC50 Inward current
T1 construct: expressed in transfected cells
T1 sequence (Q8BLA8 whole entry): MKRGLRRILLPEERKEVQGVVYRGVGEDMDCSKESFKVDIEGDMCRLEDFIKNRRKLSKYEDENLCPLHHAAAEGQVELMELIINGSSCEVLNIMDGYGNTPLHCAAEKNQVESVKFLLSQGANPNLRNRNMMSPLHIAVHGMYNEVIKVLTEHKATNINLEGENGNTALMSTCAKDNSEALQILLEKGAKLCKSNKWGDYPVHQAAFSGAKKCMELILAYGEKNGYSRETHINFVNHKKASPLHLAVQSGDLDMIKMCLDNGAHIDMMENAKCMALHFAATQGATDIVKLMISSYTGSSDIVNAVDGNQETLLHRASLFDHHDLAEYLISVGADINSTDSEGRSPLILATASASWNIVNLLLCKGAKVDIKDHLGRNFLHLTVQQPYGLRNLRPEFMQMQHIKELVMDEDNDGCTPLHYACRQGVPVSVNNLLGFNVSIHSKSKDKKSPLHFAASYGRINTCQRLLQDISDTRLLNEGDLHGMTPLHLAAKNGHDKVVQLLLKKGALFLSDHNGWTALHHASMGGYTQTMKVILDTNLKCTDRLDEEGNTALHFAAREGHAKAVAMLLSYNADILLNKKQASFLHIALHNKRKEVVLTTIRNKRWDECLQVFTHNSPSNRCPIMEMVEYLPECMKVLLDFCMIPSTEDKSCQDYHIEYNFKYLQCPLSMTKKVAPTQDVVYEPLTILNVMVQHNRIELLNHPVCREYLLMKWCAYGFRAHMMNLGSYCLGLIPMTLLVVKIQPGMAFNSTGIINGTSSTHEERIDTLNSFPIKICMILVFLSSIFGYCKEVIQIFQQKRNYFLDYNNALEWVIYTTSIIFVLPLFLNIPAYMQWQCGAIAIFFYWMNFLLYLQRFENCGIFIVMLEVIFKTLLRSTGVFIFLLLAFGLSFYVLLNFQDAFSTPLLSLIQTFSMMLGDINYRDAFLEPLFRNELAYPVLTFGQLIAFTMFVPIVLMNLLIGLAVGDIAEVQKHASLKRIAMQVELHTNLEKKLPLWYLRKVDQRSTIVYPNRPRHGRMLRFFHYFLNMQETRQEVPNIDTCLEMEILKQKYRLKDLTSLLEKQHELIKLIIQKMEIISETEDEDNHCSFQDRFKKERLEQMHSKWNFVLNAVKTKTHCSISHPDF

CYP1A2 = target: T2, CYP1A2 (Homo sapiens, UniProt P05177); assay: CYP450 inhibition at 10 μM; type: biochemical; settings: probe Phenacetin, 1A2, substrate Phenacetin
T2 sequence (P05177 1-516): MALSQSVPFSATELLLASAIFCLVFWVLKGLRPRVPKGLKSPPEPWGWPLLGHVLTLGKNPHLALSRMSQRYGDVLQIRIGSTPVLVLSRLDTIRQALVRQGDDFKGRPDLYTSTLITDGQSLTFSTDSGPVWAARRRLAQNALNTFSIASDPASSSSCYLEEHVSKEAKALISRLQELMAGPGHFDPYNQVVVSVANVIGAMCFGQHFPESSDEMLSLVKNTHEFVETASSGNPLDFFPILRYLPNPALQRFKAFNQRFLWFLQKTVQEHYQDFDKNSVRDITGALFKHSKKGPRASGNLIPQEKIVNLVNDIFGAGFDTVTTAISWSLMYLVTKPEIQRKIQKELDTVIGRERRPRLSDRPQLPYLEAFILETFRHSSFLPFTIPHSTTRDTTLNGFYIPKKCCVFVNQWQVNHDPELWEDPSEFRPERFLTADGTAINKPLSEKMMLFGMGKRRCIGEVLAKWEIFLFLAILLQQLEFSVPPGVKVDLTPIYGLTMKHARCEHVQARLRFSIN

human TRPA1 (hTRPA1) = target: T3, human TRPA1 (hTRPA1) (Homo sapiens, UniProt O75762); assay: hTRPA1 IC50 in presence of albumin and plasma, whole-cell patch clamp; type: cell-based; settings: for IC50: 20 μM AITC
T3 construct: expressed in transfected cells
T3 sequence (O75762 whole entry): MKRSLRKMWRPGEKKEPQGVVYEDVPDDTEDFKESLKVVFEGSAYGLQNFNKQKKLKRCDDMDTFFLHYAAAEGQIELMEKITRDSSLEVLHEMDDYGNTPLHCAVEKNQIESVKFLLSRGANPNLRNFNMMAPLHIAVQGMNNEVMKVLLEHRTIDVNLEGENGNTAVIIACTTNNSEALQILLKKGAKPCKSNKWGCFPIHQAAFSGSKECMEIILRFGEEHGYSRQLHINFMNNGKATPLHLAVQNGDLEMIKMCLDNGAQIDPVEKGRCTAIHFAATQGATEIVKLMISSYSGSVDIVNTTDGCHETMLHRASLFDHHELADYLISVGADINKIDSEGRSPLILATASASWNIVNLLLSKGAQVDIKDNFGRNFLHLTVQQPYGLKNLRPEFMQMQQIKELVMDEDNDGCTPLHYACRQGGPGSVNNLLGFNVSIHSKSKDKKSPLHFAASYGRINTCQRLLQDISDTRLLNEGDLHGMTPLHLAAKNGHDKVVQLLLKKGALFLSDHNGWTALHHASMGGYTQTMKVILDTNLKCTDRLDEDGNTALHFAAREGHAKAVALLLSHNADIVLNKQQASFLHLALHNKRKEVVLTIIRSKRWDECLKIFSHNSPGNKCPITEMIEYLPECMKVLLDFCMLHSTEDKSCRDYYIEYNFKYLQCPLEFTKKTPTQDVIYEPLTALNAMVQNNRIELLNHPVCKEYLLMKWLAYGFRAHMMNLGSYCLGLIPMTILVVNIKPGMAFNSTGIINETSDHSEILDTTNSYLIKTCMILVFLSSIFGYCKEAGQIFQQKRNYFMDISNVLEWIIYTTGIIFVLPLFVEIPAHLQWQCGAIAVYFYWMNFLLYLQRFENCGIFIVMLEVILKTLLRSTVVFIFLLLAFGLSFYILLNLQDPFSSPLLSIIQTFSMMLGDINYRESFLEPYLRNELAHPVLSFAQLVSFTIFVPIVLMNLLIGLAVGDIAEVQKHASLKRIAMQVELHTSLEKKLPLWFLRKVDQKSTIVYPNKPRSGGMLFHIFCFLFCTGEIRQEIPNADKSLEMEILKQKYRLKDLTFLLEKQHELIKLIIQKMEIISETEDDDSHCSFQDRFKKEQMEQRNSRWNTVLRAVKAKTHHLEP
Text: The change in IC50 block in the presence of albumin and plasma was also studied. It is assumed that the pharmacological effect of a drug correlates to unbound plasma levels, which is known as the “free drug hypothesis”. The aim of this study was to estimate the change in IC50 for block of human TRPA1 (hTRPA1) by Compound 2 in the presence of physiologically relevant concentrations of albumin and plasma (see Table 7). The human form of TRPA1 was used to assess protein binding in all species due to technical issues. The whole-cell patch clamp technique as described in del Camino, D. et al. J Neurosci 74 (2010) 30:15165 was employed to measure current through hTRPA1 upon activation by allyl isothiocyanate (AITC), the active ingredient in mustard oil, in the presence of 1% (w/v) serum albumin or 25% (v/v) plasma from various species including human plasma (hPlasma), human serum albumin (HSA), rat plasma (rPlasma), rat serum albumin (RSA), dog plasma, and sheep serum albumin (sheepSA). Compound 2 was sub-diluted from a 10 mM stock in DMSO to 10 and 100 μM in DMSO, then diluted into Ringer solution at the concentrations referenced in Table 7 and Table 8.

Chain of CYP3A4 (P08684 whole entry): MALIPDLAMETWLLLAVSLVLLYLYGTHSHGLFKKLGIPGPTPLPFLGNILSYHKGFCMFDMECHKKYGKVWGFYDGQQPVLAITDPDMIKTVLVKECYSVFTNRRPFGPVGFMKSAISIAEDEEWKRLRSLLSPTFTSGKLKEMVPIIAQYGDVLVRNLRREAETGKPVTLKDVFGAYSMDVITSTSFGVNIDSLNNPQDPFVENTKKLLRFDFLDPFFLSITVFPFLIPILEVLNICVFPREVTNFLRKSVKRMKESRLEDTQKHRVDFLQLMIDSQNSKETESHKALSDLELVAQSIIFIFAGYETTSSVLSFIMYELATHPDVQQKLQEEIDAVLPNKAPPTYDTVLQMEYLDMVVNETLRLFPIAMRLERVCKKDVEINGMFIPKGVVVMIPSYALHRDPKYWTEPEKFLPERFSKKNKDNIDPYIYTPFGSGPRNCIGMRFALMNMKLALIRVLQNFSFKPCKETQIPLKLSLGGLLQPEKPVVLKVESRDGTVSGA
Chain of CYP2C19 (P33261 whole entry): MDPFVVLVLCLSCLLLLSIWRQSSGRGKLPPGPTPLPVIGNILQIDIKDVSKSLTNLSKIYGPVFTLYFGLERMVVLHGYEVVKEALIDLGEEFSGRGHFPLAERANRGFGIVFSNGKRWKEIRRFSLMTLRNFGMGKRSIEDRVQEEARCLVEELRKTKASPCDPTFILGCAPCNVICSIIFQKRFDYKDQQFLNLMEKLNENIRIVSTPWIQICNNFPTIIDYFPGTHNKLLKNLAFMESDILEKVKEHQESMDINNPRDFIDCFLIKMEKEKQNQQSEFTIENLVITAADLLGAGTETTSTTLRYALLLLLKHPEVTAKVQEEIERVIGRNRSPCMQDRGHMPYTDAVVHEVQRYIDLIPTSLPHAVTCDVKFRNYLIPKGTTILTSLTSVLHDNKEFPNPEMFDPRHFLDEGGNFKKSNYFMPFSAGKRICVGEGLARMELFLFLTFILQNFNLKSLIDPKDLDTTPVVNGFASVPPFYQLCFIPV

inhibition at 10 µM (CYP3A4; probe Midazolam, 3A4, substrate Midazolam): 0%
inhibition at 10 µM (CYP3A4; probe Testosterone, 3A4, substrate Testosterone): 2.8%
inhibition at 10 µM (CYP2C19): 37.1%
solubility at 30 h [1]: 200 to 1300 µg/mL (≈ 367 to 2390 µM)
IC50 (mTRPA1): 26.6 ± 3.3 nM
inhibition at 10 µM (CYP1A2): 9%
IC50 (human TRPA1 (hTRPA1); 1% (w/v) rat serum albumin, read-out: IC50 + RSA): 95 ± 9 nM
IC50 (human TRPA1 (hTRPA1); 1% (w/v) sheep serum albumin, read-out: IC50 + SheepSA): 70 ± 10 nM
IC50 (human TRPA1 (hTRPA1); 25% (v/v) dog plasma, read-out: IC50 + dog Plasma): 221 ± 54 nM
IC50 (human TRPA1 (hTRPA1); 25% (v/v) human plasma, read-out: IC50 + hPlasma): 95 ± 2 nM
IC50 (human TRPA1 (hTRPA1); 25% (v/v) rat plasma, read-out: IC50 + rPlasma): 68 ± 8 nM
Fold Shift (human TRPA1 (hTRPA1); IC50 + RSA): 14X
Fold Shift (human TRPA1 (hTRPA1); IC50 + SheepSA): 10X
Fold Shift (human TRPA1 (hTRPA1); IC50 + dog Plasma): 32X
Fold Shift (human TRPA1 (hTRPA1); IC50 + hPlasma vs IC50 in absence of serum): 14 X
Fold Shift (human TRPA1 (hTRPA1); IC50 + rPlasma): 10X
binding to plasma proteins based on the shift in IC50 (human TRPA1 (hTRPA1); across the four species tested): 90-97%
time to complete block and reversal upon washout (human TRPA1 (hTRPA1); hTRPA1 currents): 2 to 3 min
Structure (SMILES): C[C@@H](C(=O)Nc1ccnc(-c2cnc(N3CCC[C@H]3C(F)(F)F)nc2)n1)n1cnc2c1c(=O)n(C)c(=O)n2C [Compound 2, (S)-2-(1,3-dimethyl-2,6-dioxo-2,3-dihydro-1H-purin-7(6H)-yl)-N-(2′-((S)-2-(trifluoromethyl)pyrrolidin-1-yl)-[2,5′-bipyrimidin]-4-yl)propanamide]
ALP d-5 (beagle dogs; 30 mg/kg group): 93.0 U/L
ALT d-5 (beagle dogs; 30 mg/kg group): 19.0 U/L
AST d-5 (beagle dogs; 30 mg/kg group): 20.0 U/L
GGT d-5 (beagle dogs; 30 mg/kg group): 0.0 U/L
ALP d5 (beagle dogs; 30 mg/kg oral once daily): 143.0 U/L
ALT d5 (beagle dogs; 30 mg/kg oral once daily): 20.0 U/L
AST d5 (beagle dogs; 30 mg/kg oral once daily): 22.0 U/L
GGT d5 (beagle dogs; 30 mg/kg oral once daily): 0.0 U/L
ALP d-5 (beagle dogs; 100 mg/kg group): 120.0 U/L
ALT d-5 (beagle dogs; 100 mg/kg group): 21.0 U/L
AST d-5 (beagle dogs; 100 mg/kg group): 20.0 U/L
GGT d-5 (beagle dogs; 100 mg/kg group): 0.0 U/L
ALP d5 (beagle dogs; 100 mg/kg oral once daily): 141.0 U/L
ALT d5 (beagle dogs; 100 mg/kg oral once daily): 19.0 U/L
AST d5 (beagle dogs; 100 mg/kg oral once daily): 21.0 U/L
GGT d5 (beagle dogs; 100 mg/kg oral once daily): 0.5 U/L
ALP d-5 (beagle dogs; 300 mg/kg group): 118.0 U/L
ALT d-5 (beagle dogs; 300 mg/kg group): 28.0 U/L
AST d-5 (beagle dogs; 300 mg/kg group): 22.0 U/L
GGT d-5 (beagle dogs; 300 mg/kg group): 0.0 U/L
ALP d5 (beagle dogs; 300 mg/kg oral once daily): 101.0 U/L
ALT d5 (beagle dogs; 300 mg/kg oral once daily): 21.0 U/L
AST d5 (beagle dogs; 300 mg/kg oral once daily): 22.0 U/L
GGT d5 (beagle dogs; 300 mg/kg oral once daily): 0.0 U/L
serum biomarkers of hepatotoxicity (ALT, AST, ALP, GGT) (beagle dogs; beagle dogs, oral once daily for five days): did not elevate the serum biomarkers up to and including a dose of 300 mg/kg
